Measurements as given in patent US8945540B2, “Compositions for enhancing the antibacterial activity of myeloperoxidase and methods of use thereof” (Exoxemis, Inc., priority 2008, dated 2015).
Read-outs that look alike come from different tables or passages of the source.

Tests used:
[1] = system: Staphylococcus aureus; experiment: Microbicidal activity of the myeloperoxidase system (p-MPO, glucose oxidase, glucose) with amino acids in the presence of blood, CFU plate counts; synergy determination from these CFU; type: cell-based; conditions: for Average Viability CFU/ml 60 min / Log 10 (CFU + 1) Survivors 60 min / Log Reduction 60 min: MPO 38 U/ml, GO 33.3 U/ml; for Average Viability CFU/ml 50 min / Log Reduction 50 min: MPO 4.7 U/ml, GO 4.2 U/ml
Method in brief: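 Staphylococcus aureus grown 24 hours in TSB at 35° C was washed in saline and added at a final 2-3×10^7 CFU per mL. The bacteria were mixed in 1 mL reactions with porcine myeloperoxidase, glucose oxidase, amino acids, 150 mM sodium chloride and 3% venous whole blood. Adding glucose to 150 mM started killing. After catalase addition, survivors were counted by serial dilution plating on TSA at 37° C for 24 hours.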

[2] = system: Staphylococcus aureus; experiment: Control: microbicidal activity of the amino acid or analogue alone (no glucose, MPO, glucose oxidase) in the presence of blood; type: cell-based; conditions: for log reduction at 5000 µM: Staphylococcus aureus, 1 h, read-out: Log Reduction 60 min
From the text: As a control to determine the microbicidal activity of the amino acids alone, the foregoing procedure was followed without replication, except in the absence of glucose, MPO, and glucose oxidase.

[3] = MPO 100 μg/mL, AA 20 mM, 30 min
[4] = MPO 100 μg/mL, AA 20 mM, 60 min
[5] = Table 2, amino acid 5 mM (none: 0 mM), blood
[6] = Table 10, single amino acid 2.5 mM, in the presence of blood, 50 min
[7] = Table 13, single amino acid 2.5 mM, in the presence of blood, 50 min
[8] = Table 14, single amino acid 2.5 mM, in the presence of blood, 50 min
[9] = amino acid alone 5 mM, MPO 0, GO 0, no glucose, blood, without replication
[10] = Table 7, amino acid analogue 5 mM, blood
[11] = amino acid analogue alone 5 mM, MPO 0, GO 0, no glucose, blood
[12] = Table 3, amino acid 5 mM (none: 0 mM), blood
[13] = Table 19, amino acid (racemic, L- or D-form) 2.5 mM, 50 min
[14] = single amino acid 2.5 mM, blood

| Structure (SMILES) | Log 10 (CFU + 1) Survivors ([1]; MPO 25 μg/mL, AA 5 mM, 30 min) | Log 10 (CFU + 1) Survivors ([1]; MPO 25 μg/mL, AA 5 mM, 60 min) | Log 10 (CFU + 1) Survivors ([1]; MPO 25 μg/mL, AA […], 30 min) | Log 10 (CFU + 1) Survivors ([1]; MPO 25 μg/mL, AA […], 60 min) | Log 10 (CFU + 1) Survivors ([1]; MPO 100 μg/mL, AA 5 mM, 30 min) | Log 10 (CFU + 1) Survivors ([1]; MPO 100 μg/mL, AA 5 mM, 60 min) | Log 10 (CFU + 1) Survivors [1, 3] | Log 10 (CFU + 1) Survivors [1, 4] | Average Viability CFU/ml 60 min [1, 5] | Log 10 (CFU + 1) Survivors 60 min [1, 5] | Log Reduction 60 min [1, 5] | log reduction at 5000 µM [2, 9] | Average Viability CFU/ml 60 min [2, 9] | Log Reduction 60 min [1, 10] | Average Viability CFU/ml 60 min [1, 12] | Log 10 (CFU + 1) Survivors 60 min [1, 12] | Log Reduction 60 min [1, 12] | other results |
| --- | --- | --- | --- | --- | --- | --- | --- | --- | --- | --- | --- | --- | --- | --- | --- | --- | --- | --- |
| N[C@@H](CO)C(=O)O [L-Serine] | 5.0 | 0.0 | 6.8 | 1.8 | 5.0 | 0.0 | 5.8 | 0.0 | 0 CFU/ml | 0.0 | 7.4 | 0 | 24100000 CFU/ml |  |  |  |  | Average Viability CFU/ml 50 min [1, 6]: 1175000 CFU/ml; Log Reduction 50 min [1, 6]: 1.3; Average Viability CFU/ml 50 min [1, 7]: 835000 CFU/ml; Log Reduction 50 min [1, 7]: 1.5; Average Viability CFU/ml 50 min [1, 8]: 940000 CFU/ml; Log Reduction 50 min [1, 8]: 1.5 |
| C[C@@H](O)[C@H](N)C(=O)O [L-Threonine] | 7.3 | 7.1 | 7.3 | 6.7 | 7.1 | 5.5 | 7.3 | 7.3 | 630000 CFU/ml | 5.8 | 1.6 | 0 | 23300000 CFU/ml |  |  |  |  | Average Viability CFU/ml 50 min [1, 7]: 1415000 CFU/ml; Log Reduction 50 min [1, 7]: 1.2 |
| N[C@@H](Cc1c[nH]c2ccccc12)C(=O)O [L-Tryptophan] |  |  |  |  |  |  |  |  | 21150000 CFU/ml | 7.3 | 0.1 |  | 21600000 CFU/ml |  |  |  |  | log reduction at 5000 µM [2]: 0 |
| COC(=O)[C@@H](N)Cc1ccc(O)cc1.Cl [L-Tyrosine methyl ester hydrochloride] |  |  |  |  |  |  |  |  |  |  |  |  |  | 2.4 |  |  |  | Average Viability CFU/ml 60 min [1, 10]: 87000 CFU/ml; log reduction at 5000 µM [2, 11]: 0; Average Viability CFU/ml 60 min [2, 11]: 20900000 CFU/ml |
| N[C@@H](Cc1ccc(O)cc1)C(=O)O [L-Tyrosine] | 7.3 | 7.1 | 7.3 | 7.0 | 7.3 | 5.8 | 7.3 | 7.2 |  |  |  | 0 | 21600000 CFU/ml |  | 630000 CFU/ml | 5.8 | 1.5 | Average Viability CFU/ml 50 min [1, 7]: 890000 CFU/ml; Log Reduction 50 min [1, 7]: 1.4; Average Viability CFU/ml 50 min [1, 8]: 1450000 CFU/ml; Log Reduction 50 min [1, 8]: 1.3 |
| CCOC(=O)[C@@H](N)C(C)C.Cl [L-Valine ethyl ester hydrochloride] |  |  |  |  |  |  |  |  |  |  |  |  |  | 7.4 |  |  |  | Average Viability CFU/ml 60 min [1, 10]: 0 CFU/ml; log reduction at 5000 µM [2, 11]: 0; Average Viability CFU/ml 60 min [2, 11]: 22300000 CFU/ml |
| CC(C)[C@H](N)C(=O)O [L-Valine] | 4.7 | 0.0 | 4.8 | 0.0 | 0.0 | 0.0 | 0.0 | 0.0 | 0 CFU/ml | 0.0 | 7.4 | 0 | 23100000 CFU/ml |  |  |  |  | Average Viability CFU/ml 50 min [1, 6]: 104500 CFU/ml; Log Reduction 50 min [1, 6]: 2.4; Average Viability CFU/ml 50 min [1, 13]: 104500 CFU/ml; Log Reduction 50 min [1, 13]: 2.4; Average Viability CFU/ml 50 min [1, 14]: 104500 CFU/ml; Log Reduction 50 min [1, 14]: 2.4 |
| O=C(O)c1cccnc1 [Nicotinic acid] |  |  |  |  |  |  |  |  |  |  |  | 0 | 23200000 CFU/ml |  | 4150000 CFU/ml | 6.6 | 0.7 |  |
| O=C(O)C1CCCNC1 (stereo not shown) [Nipecotic acid] |  |  |  |  |  |  |  |  |  |  |  |  |  | 7.4 |  |  |  | log reduction at 5000 µM [2]: 0 |
| CC(=O)C(=O)O [Pyruvic acid] |  |  |  |  |  |  |  |  |  |  |  | 0 | 22100000 CFU/ml |  | 4900000 CFU/ml | 6.7 | 0.6 |  |
| CNCC(=O)OC.Cl [Sarcosine methyl ester hydrochloride] |  |  |  |  |  |  |  |  |  |  |  |  |  | 7.4 |  |  |  | Average Viability CFU/ml 60 min [1, 10]: 0 CFU/ml; log reduction at 5000 µM [2, 11]: 0; Average Viability CFU/ml 60 min [2, 11]: 23200000 CFU/ml |
| NCCS(=O)(=O)O [Taurine] | 7.3 | 7.0 | 7.3 | 7.1 | 7.3 | 5.0 | 7.3 | 5.1 |  |  |  | 0 | 21600000 CFU/ml |  | 830000 CFU/ml | 5.9 | 1.4 |  |
